# Data published in patent publication US9017692B2, “Antimicrobial agent, bacterial strain, biosynthesis, and methods of use” (priority 2011, dated 2015).
# How the values were obtained:
# [1] = tested on: Escherichia coli O157:H7 EDL933; experiment: MIC, CLSI broth microdilution, foodborne pathogens; format: cell-based
# Description: (§1) Plates were incubated at 35° C. for 24 h.
# [2] = tested on: Listeria monocytogenes Scott A; experiment: MIC, CLSI broth microdilution, foodborne pathogens; format: cell-based
# Description: as §1
# [3] = tested on: Bacillus cereus ATCC14579; experiment: MIC, CLSI broth microdilution, foodborne pathogens; format: cell-based
# Description: as §1
# Yersinia enterocolitica [4] = experiment: MIC, CLSI broth microdilution, foodborne pathogens; format: cell-based
# Description: as §1
# MSSA ATCC 29213 SAU.42 = experiment: microbe, parasite or virus in culture; conditions: SAU.42, MSSA ATCC 29213; NBS 96-well plates
# Description: (§2) The activity of paenibacterin against several strains of Gram-positive and Gram-negative foodborne pathogens is summarized in Table 10. The data is reported as minimum inhibitory concentrations (MIC) as an average of three replicates for paenibacterin against the various listed bacterial strains. […] MICs were determined according to the CLSI broth microdilution method (see, Clinical and Laboratory Standards Institute (CLSI). 2009. Methods for dilution antimicrobial susceptibility tests for bacteria that grow aerobically; approved standard. […]. CLSI, Wayne, Pa.). Briefly, HPLC-purified paenibacterin was dissolved in methanol and diluted to appropriate concentration with cation-adjusted Mueller-Hinton II broth (Difco). Aliquots (25 μl) of serially-diluted paenibacterin was dispensed into wells of a 96-well plate; an equal amount of 1/10 diluted overnight bacterial culture was added to wells. Plates were incubated at 35° C. for 24 h. Cell growth after incubation was examined and determined using a microtiter plate reader at 600 nm. Concentration of paenibacterin is determined based on a molecular weight of 1604 Da.
# (§3) The activity of paenibacterin was further tested against clinical isolates of the following Gram-positive bacteria: methicillin-sensitive Staphylococcus aureus (MSSA), methicillin-resistant S. aureus (MRSA), vancomycin-sensitive Enterococcus faecalis, vancomycin-resistant E. faecalis (VRE), Streptococcus pneumoniae, and laboratory derived daptomycin-resistant (DR) MSSA, MRSA, and VRE strains. The MICs were determined using the above described CLSI broth microdilution method, in which the method was performed with non-binding surface coated (NBS) 96-well plates.
# [5] = tested on: DR-VRE from EFS.807 EFS.2731; experiment: microbe, parasite or virus in culture; conditions: EFS.2731, DR-VRE from EFS.807; NBS 96-well plates
# Description: as §2, §3
# [6] = tested on: DR-MRSA from MW2 SP SAU.1616; experiment: microbe, parasite or virus in culture; conditions: SAU.1616, DR-MRSA from MW2 SP; NBS 96-well plates
# Description: as §2, §3
# [7] = tested on: DR-MSSA from SAU.42 SAU.278; experiment: microbe, parasite or virus in culture; conditions: SAU.278, DR-MSSA from SAU.42; NBS 96-well plates
# Description: as §2, §3
# WT ATCC 29212 EFS.43 = experiment: microbe, parasite or virus in culture; conditions: EFS.43, WT ATCC 29212; NBS 96-well plates
# Description: as §2, §3
# WT ATCC 49619 SPN.31 = experiment: microbe, parasite or virus in culture; conditions: SPN.31, WT ATCC 49619; NBS 96-well plates
# Description: as §2, §3
# MRSA ATCC 43300 SAU.399 = experiment: microbe, parasite or virus in culture; conditions: SAU.399, MRSA ATCC 43300; NBS 96-well plates
# Description: as §2, §3
# [8] = tested on: DS-VRE ATCC 700802 EFS.807; experiment: microbe, parasite or virus in culture; conditions: EFS.807, DS-VRE ATCC 700802; NBS 96-well plates
# Description: as §2, §3
# Enterococcus faecalis = experiment: MIC, summary of Table 13; format: cell-based; conditions: Enterococcus faecalis strains of Table 13; NBS plates
# Description: as §2, §3
# Streptococcus pneumoniae = experiment: MIC, summary of Table 13; format: cell-based; conditions: NBS plates
# Description: as §2, §3
# Staphylococcus aureus = experiment: MIC, summary of Table 13; format: cell-based; conditions: Staphylococcus aureus strains of Table 13; NBS plates
# Description: as §2, §3
# [9] = tested on: S. aureus (methycillin-resistant); experiment: Spot-on-lawn antimicrobial activity; format: cell-based, Staphylococcus aureus; conditions: TSBYE
# Description: (§4) Spot-on-lawn method [He, Z., et al., Appl. Environ. Microbiol., (2007) 73:168-178] was used for the bioassay of antimicrobial activity. Bacterial indicators were incubated at 37° C. for 24 h, except Pseudomonas putida, Clostridium difficile and methycillin resistant Staphylococcus aureus which were incubated for 48 h (Table 1). The indicator overlay was prepared by pouring 10 ml soft agar (seeded with 10 μL indicator culture) onto tryptose agar as basal medium in a petri dish. Purified antimicrobials were two-fold serially diluted and aliquots (10 μL each) were spotted onto the soft agar. The plates were incubated overnight and inspected for the presence of growth inhibition zones. Antimicrobial activity was expressed in arbitrary units (AU)/mL; this value is the reciprocal of the highest dilution displaying a zone of inhibition corresponding to 1 mL of the non-diluted antimicrobial preparation.
# (§5) Purified paenibacterin was used for the antimicrobial spectrum test. Microorganisms tested for sensitivity to this compound included pathogenic (e.g., Salmonella Typhimurium, Escherichia coli O157:H7, Listeria monocytogenes, and Staphylococcus aureus) and non-pathogenic (e.g., Escherichia coli K-12, Pseudomonas putida, and Enterococcus faecalis) bacteria (Table 1).
# [10] = tested on: Lactobacillus plantarum ATCC 8014; experiment: Spot-on-lawn antimicrobial activity; format: cell-based; conditions: MRS
# Description: as §4, §5
# [11] = tested on: Enterococcus faecalis ATCC 29212; experiment: Spot-on-lawn antimicrobial activity; format: cell-based; conditions: MRS
# Description: as §4, §5
# L. lactis ATCC 11454 = experiment: Spot-on-lawn antimicrobial activity; format: cell-based; conditions: MRS
# Description: as §4, §5
# [12] = tested on: Listeria monocytogenes Scott A; experiment: Spot-on-lawn antimicrobial activity; format: cell-based; conditions: TSBYE
# Description: as §4, §5
# [13] = tested on: Clostridium difficile A515; experiment: Spot-on-lawn antimicrobial activity; format: cell-based; conditions: BHIYE
# Description: as §4, §5
# [14] = tested on: Bacillus cereus ATCC 14579; experiment: Spot-on-lawn antimicrobial activity; format: cell-based; conditions: TSBYE
# Description: as §4, §5
# [15] = tested on: Staphylococcus aureus ATCC 6538; experiment: Spot-on-lawn antimicrobial activity; format: cell-based; conditions: TSBYE
# Description: as §4, §5
# [16] = tested on: Pseudomonas putida ATCC 45491; experiment: Spot-on-lawn antimicrobial activity; format: cell-based; conditions: TSBYE
# Description: as §4, §5
# [17] = tested on: Salmonella enterica ser. Typhimurium; experiment: Spot-on-lawn antimicrobial activity; format: cell-based; conditions: TSBYE
# Description: as §4, §5
# Yersinia enterocolitica [18] = experiment: Spot-on-lawn antimicrobial activity; format: cell-based; conditions: TSBYE
# Description: as §4, §5
# [19] = based on molecular weight of 1604 Da
substance,measurement,setting,value
paenibacterin,Minimum inhibitory concentration (MIC) Average,[1]; average of three replicates,7.81 µg/mL
same,Minimum inhibitory concentration (MIC) Average,[1]; [19],4.87 µM
same,Minimum inhibitory concentration (MIC) Average,[2]; average of three replicates,1.95 µg/mL
same,Minimum inhibitory concentration (MIC) Average,[2]; [19],1.22 µM
same,Minimum inhibitory concentration (MIC) Average,[3]; average of three replicates,15.6 µg/mL
same,Minimum inhibitory concentration (MIC) Average,[3]; [19],9.74 µM
same,Minimum inhibitory concentration (MIC) Average,Yersinia enterocolitica [4]; average of three replicates,3.26 µg/mL
same,Minimum inhibitory concentration (MIC) Average,Yersinia enterocolitica [4]; [19],2.03 µM
same,Minimum inhibitory concentration (MIC),MSSA ATCC 29213 SAU.42,32 µg/mL
same,Minimum inhibitory concentration (MIC),[5],8 µg/mL
same,Minimum inhibitory concentration (MIC),[6],32 µg/mL
same,Minimum inhibitory concentration (MIC),[7],64 µg/mL
same,Minimum inhibitory concentration (MIC),WT ATCC 29212 EFS.43,32 to 64 µg/mL
same,Minimum inhibitory concentration (MIC),WT ATCC 49619 SPN.31,64 µg/mL
same,Minimum inhibitory concentration (MIC),MRSA ATCC 43300 SAU.399,32 µg/mL
same,Minimum inhibitory concentration (MIC),[8],64 µg/mL
same,MIC,Enterococcus faecalis,32 to 64 µg/mL
same,MIC,Streptococcus pneumoniae,32 to 64 µg/mL
same,MIC,Staphylococcus aureus,32 to 64 µg/mL
same,Antimicrobial activity (AU/ml),[9],100 AU/ml
same,Antimicrobial activity (AU/ml),[10],400 AU/ml
same,Antimicrobial activity (AU/ml),[11],0 AU/ml
same,Antimicrobial activity (AU/ml),[11]; listed as Paenibacterin,no activity
same,Antimicrobial activity (AU/ml),L. lactis ATCC 11454,800 AU/ml
same,Antimicrobial activity (AU/ml),[12],800 AU/ml
same,Antimicrobial activity (AU/ml),[13],200 AU/ml
same,Antimicrobial activity (AU/ml),[14],800 AU/ml
same,Antimicrobial activity (AU/ml),[15],100 AU/ml
same,Antimicrobial activity (AU/ml),[16],400 AU/ml
same,Antimicrobial activity (AU/ml),[17],400 AU/ml
same,Antimicrobial activity (AU/ml),Yersinia enterocolitica [18],1600 AU/ml
